Source: patent US11918822B2, “Compositions and methods for enhancing the biological response to chemical agents and physical stimuli” (The Research Foundation for the State University of New York, priority 2010, dated 2024)

System: C3H10T1/2 embryonic mesenchymal stem cells
Assay: Adipogenesis of mesenchymal stem cells in adipogenic medium (adiponectin, PPARγ immunoblots, lipid granules)
Type: cell-based
Method: C3H10T1/2 embryonic mesenchymal stem cells were maintained in growth medium (α-MEM, 10% FBS, 100 µg/ml penicillin/streptomycin). Cells were plated at a density of 6,000-10,000 cells per cm^2 in collagen-I coated silicone membrane plates and cultured for two days before loading protocols began. Adipogenic medium included 0.1 μM dexamethasone, 5 μg/ml insulin, and in some cases, 50 μM indomethcin. If noted, MSC wee transfected with siRNA (100 nm) in serum-free OptiMEM overnight before replacing the medium. Multi-potential medium contained 50 μg/ml ascorbic acid, 1 μM β-glycerophosphate, 10 nM dexamethasone, nM all trans-retinoic acid, 5 μg/mi insulin, 0.5 mM 3-isobutyl-1-methylxanthine (IBMX).
Low Intensity Vibration (LIV): To deliver LIV to cultured MSC, an amplified loudspeaker generated controlled 90 Hz 0.6 g (where 1.0 g is Earth's gravitational field, or […]) standing wave accelerations/decelerations through the wells of culture dishes. Dishes were removed from the incubator during the loading periods (up to three times per day) and set on the lab-bench (control) or, for LIV, on the loudspeaker.
Western blotting: Details were as in Sen, et al. (Endocrinology 42:6065-6075 (2008)). Antibodies included those directed against active β-catenin (Upstate, Temecula, CA), total […] (BD, Bedford, MA), total-GSK3β Chemicon, Billerica, MA), aP2, PPARγ, adiponectin, COX2, NFATc1 and tubulin (Santa Cruz, CA). Densitometry was determined using NIH ImageJ, 1.37v.
Histochemical Staining: After fixation in 2% formaldehyde, cells were rinsed before staining for cytoplasmic triglyceride droplets with oil-red-O.

Molecule: O=C1NC(=O)C(c2ccccc2[N+](=O)[O-])=C1Nc1ccc(O)c(Cl)c1 [SB415286]
- effect on adipogenesis (MSC in adipogenic medium): prevention of adipogenesis
- effect on adipogenesis when β-catenin is knocked down (MSC with siRNA targeting β-catenin (+siCat)): blocked by targeting β-catenin

Molecule: COc1ccc2c(c1)c(CC(=O)O)c(C)n2C(=O)c1ccc(Cl)cc1 [indonethacin]
- time to adipogenesis (rate of adipogenesis) after addition to adipogenic media (added to adipogenic media, without it 7-8 days): 4 to 5 days

B1: DKK1: protein from R & D Systems added at doses known to inhibit Wnt binding Lrp receptors (protein, UniProt O94907 32-266, looked up)
Dickkopf-related protein 1: TLNSVLNSNAIKNLPPPLGGAAGHPGSAVSAAPGILYPGGNKYQTIDNYQPYPCAEDEECGTDEYCASPTRGGDAGVQICLACRKRRKRCMRHAMCCPGNYCKNGICVSSDQNHFRGEIEETITESFGNDHSTLDGYSRRTTLSSKMYHTKGQEGSVCLRSSDCASGLCCARHFWSKICKPVLKEGQVCTKHRRKGSHGLEIFQRCYCGEGLSCRIQKDHHQASNSSRLHTCQRH
- effect on LIV's ability to inhibit adipogenesis (added to LIV treated cultures at doses known to inhibit Wnt binding Lrp receptors): failed to block LIV's ability to inhibit adipogenesis
